Assay results from ChEMBL document CHEMBL5223100, “Homobivalent, Trivalent, and Covalent PROTACs: Emerging Strategies for Protein Degradation” (J Med Chem, 2022).
Each block holds one compound with its values, some of them ahead of it.

Assays:
[1] = biological target: Transcription intermediary factor 1-alpha (Homo sapiens, UniProt O15164); assay: Inhibition of His-tagged TRIM24 (unknown origin) expressed in Escherichia coli BL21(DE3)pLysS competent cells using biotinylated-H3K23ac peptide as substrate incubated for 30 mins by Alphascreen assay
Transcription intermediary factor 1-alpha, sequence (O15164 whole entry): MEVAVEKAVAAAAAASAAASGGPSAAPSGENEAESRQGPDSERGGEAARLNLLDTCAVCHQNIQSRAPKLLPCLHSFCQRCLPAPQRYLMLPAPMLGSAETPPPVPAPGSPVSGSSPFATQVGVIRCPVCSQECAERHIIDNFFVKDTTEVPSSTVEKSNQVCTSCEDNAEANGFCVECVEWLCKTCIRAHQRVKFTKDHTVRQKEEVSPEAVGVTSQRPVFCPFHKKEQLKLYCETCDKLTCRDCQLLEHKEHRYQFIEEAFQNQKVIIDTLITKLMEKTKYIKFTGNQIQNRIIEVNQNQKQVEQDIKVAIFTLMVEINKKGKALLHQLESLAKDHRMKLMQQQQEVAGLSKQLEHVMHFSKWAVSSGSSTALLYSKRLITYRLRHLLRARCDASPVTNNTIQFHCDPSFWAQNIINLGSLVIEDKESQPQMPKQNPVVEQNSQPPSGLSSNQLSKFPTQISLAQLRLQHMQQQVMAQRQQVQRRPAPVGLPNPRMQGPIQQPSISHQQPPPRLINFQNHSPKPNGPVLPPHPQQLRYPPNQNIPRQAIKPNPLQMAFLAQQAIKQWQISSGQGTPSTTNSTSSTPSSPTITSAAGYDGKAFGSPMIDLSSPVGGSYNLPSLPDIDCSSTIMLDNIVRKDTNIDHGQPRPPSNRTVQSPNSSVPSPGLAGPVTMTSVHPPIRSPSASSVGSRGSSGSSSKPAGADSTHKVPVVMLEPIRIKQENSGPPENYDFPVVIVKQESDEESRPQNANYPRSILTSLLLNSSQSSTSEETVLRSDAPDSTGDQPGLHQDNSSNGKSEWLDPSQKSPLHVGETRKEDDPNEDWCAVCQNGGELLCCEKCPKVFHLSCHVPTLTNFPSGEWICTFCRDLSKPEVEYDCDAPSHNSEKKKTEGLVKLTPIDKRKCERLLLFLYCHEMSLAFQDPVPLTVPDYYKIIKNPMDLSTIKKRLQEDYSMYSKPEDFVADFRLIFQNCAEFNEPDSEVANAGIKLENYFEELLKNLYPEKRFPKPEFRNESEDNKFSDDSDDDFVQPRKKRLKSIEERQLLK

[2] = biological target: T1, Tyrosine-protein kinase BTK (Homo sapiens, UniProt Q06187); assay: Induction of BTK degradation in human MINO cells; assay type: cell-based
T1 sequence (Q06187 whole entry): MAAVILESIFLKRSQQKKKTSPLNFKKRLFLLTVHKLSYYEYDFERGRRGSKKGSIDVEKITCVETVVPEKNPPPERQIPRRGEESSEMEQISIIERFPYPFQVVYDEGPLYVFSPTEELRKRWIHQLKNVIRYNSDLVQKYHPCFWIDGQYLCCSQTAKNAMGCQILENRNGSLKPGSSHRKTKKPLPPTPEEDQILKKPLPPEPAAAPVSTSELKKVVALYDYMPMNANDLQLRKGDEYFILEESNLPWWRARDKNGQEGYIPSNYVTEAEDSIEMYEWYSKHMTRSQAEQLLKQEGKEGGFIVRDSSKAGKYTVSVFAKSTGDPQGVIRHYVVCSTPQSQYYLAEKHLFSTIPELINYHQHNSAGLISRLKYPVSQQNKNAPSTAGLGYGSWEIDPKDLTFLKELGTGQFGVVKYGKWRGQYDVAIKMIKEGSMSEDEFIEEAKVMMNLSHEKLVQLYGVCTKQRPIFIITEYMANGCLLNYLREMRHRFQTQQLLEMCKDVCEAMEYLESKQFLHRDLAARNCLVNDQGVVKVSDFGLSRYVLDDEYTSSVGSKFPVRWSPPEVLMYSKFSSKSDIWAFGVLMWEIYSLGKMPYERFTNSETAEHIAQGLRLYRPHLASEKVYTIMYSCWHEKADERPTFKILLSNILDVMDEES

[3] = biological target: T1, Tyrosine-protein kinase BTK; assay: Induction of BTK degradation in human MINO cells assessed as maximum degradation relative to control; assay type: cell-based
[4] = biological target: T1, Tyrosine-protein kinase BTK; assay: Induction of BTK degradation in human Ramos cells assessed as maximum degradation at 300 nM relative to control; assay type: cell-based
SU-DHL-1 = assay: Antiproliferative activity against human SU-DHL-1 cells; assay type: functional, cell-based
[5] = biological target: ALK tyrosine kinase receptor (Homo sapiens) (UniProt Q9UM73); assay: Induction of ALK degradation in human SU-DHL-1 cells assessed as maximum degradation at 300 nM after 12 hrs relative to control; assay type: cell-based
[6] = AUC in mouse; assay type: ADME, organism-based; details: in vivo
[7] = biological target: E3 ubiquitin-protein ligase Mdm2 (Homo sapiens, UniProt Q00987); assay: Displacement of p53 from human MDM2 by HTRF assay
HCT-116 [8] = assay: Antiproliferative activity against p53 knockout human HCT-116 cells; assay type: functional, cell-based
[9] = Half life in mouse; assay type: ADME, organism-based; details: in vivo
A549 [10] = assay: Antitumor activity against human A549 cells xenografted model assessed as tumor growth inhibition at 30 mg/kg; assay type: functional; details: read-out: TGI
HCT-116 [11] = assay: Antiproliferative activity against human HCT-116 cells; assay type: functional, cell-based
A549 [12] = assay: Antiproliferative activity against human A549 cells; assay type: functional, cell-based
[13] = biological target: T2, Tyrosine-protein kinase Blk (Homo sapiens, UniProt P51451); assay: Induction of BLK degradation in human K562 cells assessed as maximum degradation relative to control; assay type: cell-based
Target sequence in this assay (P51451 2-505 limits assumed): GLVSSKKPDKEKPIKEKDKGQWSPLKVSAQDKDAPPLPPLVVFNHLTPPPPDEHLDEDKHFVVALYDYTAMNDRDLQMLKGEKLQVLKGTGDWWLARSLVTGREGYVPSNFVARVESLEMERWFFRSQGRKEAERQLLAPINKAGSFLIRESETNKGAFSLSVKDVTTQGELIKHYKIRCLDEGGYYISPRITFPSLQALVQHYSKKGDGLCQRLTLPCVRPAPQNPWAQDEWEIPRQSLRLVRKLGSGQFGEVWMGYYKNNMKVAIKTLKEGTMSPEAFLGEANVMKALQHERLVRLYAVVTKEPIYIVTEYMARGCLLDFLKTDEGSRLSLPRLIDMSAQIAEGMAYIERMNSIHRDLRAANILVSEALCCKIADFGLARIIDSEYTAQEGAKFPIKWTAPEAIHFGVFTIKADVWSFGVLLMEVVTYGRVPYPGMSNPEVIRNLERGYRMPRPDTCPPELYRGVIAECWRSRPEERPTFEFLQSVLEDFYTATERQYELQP

[14] = biological target: T1, Tyrosine-protein kinase BTK; assay: Induction of BTK degradation in human K562 cells; assay type: cell-based
[15] = biological target: T2, Tyrosine-protein kinase Blk; assay: Induction of BLK degradation in human K562 cells; assay type: cell-based
[16] = biological target: T1, Tyrosine-protein kinase BTK; assay: Induction of BTK degradation in human K562 cells assessed as maximum degradation relative to control; assay type: cell-based
HepG2 = assay: Antiproliferative activity against human HepG2 cells; assay type: functional, cell-based
Huh-7 = assay: Antiproliferative activity against human Huh-7 cells; assay type: functional, cell-based
[17] = biological target: Transcription intermediary factor 1-alpha (Homo sapiens) (UniProt O15164); assay: Induction of TRIM24 degradation in HEK293FT cells assessed as maximum degradation at 5 uM relative to control; assay type: cell-based
Transcription intermediary factor 1-alpha (Homo sapiens), sequence (O15164 whole entry): as the sequence (O15164 whole entry) above

NCI-H1975 = assay: Antiproliferative activity against human NCI-H1975 cells harboring EGFR L858R/T790M double mutant; assay type: functional, cell-based
[18] = tested on: von Hippel-Lindau disease tumor suppressor/Epidermal growth factor receptor (Homo sapiens), P00533+P40337 [UNDEFINED MUTATION]; assay: Protac activity at VHL/EGFR Del19 mutant in human HCC827 cells assessed as maximum degradation relative to control; assay type: cell-based
von Hippel-Lindau disease tumor suppressor/Epidermal growth factor receptor (Homo sapiens), P00533+P40337 [UNDEFINED MUTATION], sequence (P00533 whole entry, looked up, stated change not applied): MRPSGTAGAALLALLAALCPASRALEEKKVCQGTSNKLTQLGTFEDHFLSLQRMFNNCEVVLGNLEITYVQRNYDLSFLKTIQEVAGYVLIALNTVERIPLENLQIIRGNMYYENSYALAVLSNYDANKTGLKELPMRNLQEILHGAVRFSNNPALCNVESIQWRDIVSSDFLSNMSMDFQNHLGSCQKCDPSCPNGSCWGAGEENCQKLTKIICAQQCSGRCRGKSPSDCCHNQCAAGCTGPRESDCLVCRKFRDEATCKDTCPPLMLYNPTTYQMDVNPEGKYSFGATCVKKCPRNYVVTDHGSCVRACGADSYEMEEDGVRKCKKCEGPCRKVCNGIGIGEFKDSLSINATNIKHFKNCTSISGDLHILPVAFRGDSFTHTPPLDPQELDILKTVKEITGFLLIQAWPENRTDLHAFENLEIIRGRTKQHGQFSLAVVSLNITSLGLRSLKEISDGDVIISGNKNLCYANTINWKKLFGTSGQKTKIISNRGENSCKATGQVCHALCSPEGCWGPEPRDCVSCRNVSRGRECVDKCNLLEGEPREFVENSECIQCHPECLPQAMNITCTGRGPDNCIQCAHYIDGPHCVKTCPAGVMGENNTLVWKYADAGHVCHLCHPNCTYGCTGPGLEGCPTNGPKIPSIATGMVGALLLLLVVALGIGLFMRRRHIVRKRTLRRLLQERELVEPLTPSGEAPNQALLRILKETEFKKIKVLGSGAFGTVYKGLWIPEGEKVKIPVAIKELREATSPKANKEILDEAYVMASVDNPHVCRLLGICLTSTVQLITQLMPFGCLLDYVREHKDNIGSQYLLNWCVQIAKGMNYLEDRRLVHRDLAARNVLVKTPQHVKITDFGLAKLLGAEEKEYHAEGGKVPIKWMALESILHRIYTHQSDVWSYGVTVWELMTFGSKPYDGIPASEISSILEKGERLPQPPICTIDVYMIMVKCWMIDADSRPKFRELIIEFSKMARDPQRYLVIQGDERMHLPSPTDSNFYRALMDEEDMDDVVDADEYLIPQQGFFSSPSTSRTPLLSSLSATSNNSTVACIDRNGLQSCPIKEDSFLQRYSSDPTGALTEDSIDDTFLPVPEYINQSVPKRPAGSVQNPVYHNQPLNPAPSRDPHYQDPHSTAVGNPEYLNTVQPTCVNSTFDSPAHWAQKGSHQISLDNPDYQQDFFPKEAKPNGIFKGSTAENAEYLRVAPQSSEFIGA
von Hippel-Lindau disease tumor suppressor/Epidermal growth factor receptor (Homo sapiens), P00533+P40337 [UNDEFINED MUTATION], sequence (P40337 whole entry, looked up, stated change not applied): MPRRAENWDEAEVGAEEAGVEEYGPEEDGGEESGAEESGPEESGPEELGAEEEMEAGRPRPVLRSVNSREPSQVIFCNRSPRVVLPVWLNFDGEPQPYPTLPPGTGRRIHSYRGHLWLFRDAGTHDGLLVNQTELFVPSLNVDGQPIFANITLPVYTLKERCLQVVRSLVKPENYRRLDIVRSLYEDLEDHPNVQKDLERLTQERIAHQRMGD

HCC827 [19] = assay: Antiproliferative activity against human HCC827 cells harboring EGFRDel19 mutant; assay type: functional, cell-based
HCC827 [20] = assay: Antitumor activity against human HCC827 cells xenografted in mouse assessed as tumor growth inhibition at 30 mg/kg; assay type: functional; details: read-out: TGI
[21] = biological target: von Hippel-Lindau disease tumor suppressor/Epidermal growth factor receptor (Homo sapiens, UniProt P00533+P40337); assay: Protac activity at VHL/EGFR Del19 mutant in human HCC827 cells; assay type: cell-based
von Hippel-Lindau disease tumor suppressor/Epidermal growth factor receptor, sequence (P00533 whole entry, looked up, stated change not applied): as the sequence (P00533 whole entry, looked up, stated change not applied) above
von Hippel-Lindau disease tumor suppressor/Epidermal growth factor receptor, sequence (P40337 whole entry, looked up, stated change not applied): as the sequence (P40337 whole entry, looked up, stated change not applied) above

[22] = biological target: Bromodomain-containing protein 3 (Homo sapiens, UniProt Q15059); assay: Induction of BRD3 degradation in HEK293 cells after 4 hrs; assay type: cell-based
[23] = biological target: T3, Bromodomain-containing protein 4 (Homo sapiens, UniProt O60885); assay: Induction of BRD4 degradation in HEK293 cells after 4 hrs; assay type: cell-based
[24] = biological target: Bromodomain-containing protein 2 (Homo sapiens, UniProt P25440); assay: Induction of BRD2 degradation in HEK293 cells after 4 hrs; assay type: cell-based
MV4-11 = assay: Antiproliferative activity against human MV4-11 cells
[25] = biological target: T3, Bromodomain-containing protein 4; assay: Induction of BRD4 degradation in human HeLa cells assessed as maximum degradation at 30 nM after 12 hrs relative to control; assay type: cell-based
HFF-1 = assay: Antiproliferative activity against human HFF-1 cells; assay type: functional, cell-based
HeLa = assay: Antiproliferative activity against human HeLa cells; assay type: functional, cell-based
[26] = biological target: T4, von Hippel-Lindau disease tumor suppressor (Homo sapiens, UniProt P40337); assay: Induction of pVHL30 degradation in human HeLa cells incubated for 4 hrs; assay type: cell-based
[27] = biological target: T4, von Hippel-Lindau disease tumor suppressor; assay: Binding affinity to human VHL by isothermal calorimetric assay
Target sequence in this assay (P40337 whole entry): as the sequence (P40337 whole entry, looked up, stated change not applied) above

IC50 [1]: 0.218 µM
SMILES: CCCOc1cccc(Oc2cc3c(cc2NS(=O)(=O)c2ccc(OC)c(OC)c2)n(C)c(=O)n3C)c1

DC50 [2]: 0.0022 µM | Emax [3]: 97%
SMILES: Nc1ncnc2c1c(-c1ccc(Oc3ccccc3)cc1)nn2[C@@H]1CCCN(C(=O)CCCCCCOCCOCCOCCOCCOc2cccc3c2C(=O)N(C2CCC(=O)NC2=O)C3=O)C1 (some centres not stated)

Emax [4]: 100%
SMILES: CN[C@@H](C)C(=O)N[C@H](C(=O)N1C[C@@H](NC(=O)COCCOCCOCCOCCN2CCN(C/C=C/C(=O)N3CCC[C@@H](n4nc(-c5ccc(Oc6ccccc6)cc5)c5c(N)ncnc54)C3)CC2)C[C@H]1C(=O)N[C@H]1CCCc2ccccc21)C1CCCCC1

IC50 (SU-DHL-1): 0.2 µM | Emax [5]: 100%
SMILES: Cc1cc(Nc2ncc(Cl)c(Nc3ccccc3S(=O)(=O)C(C)C)n2)c(OC(C)C)cc1C1CCN(CCCCC(=O)N[C@H](C(=O)N2C[C@H](OC(=O)CCCCn3cc(CNC(=O)CC[C@H](NC(=O)c4ccc(NCc5cnc6nc(N)[nH]c(=O)c6n5)cc4)C(=O)O)nn3)C[C@H]2C(=O)N[C@@H](C)c2ccc(-c3scnc3C)cc2)C(C)(C)C)CC1

SMILES: CCOc1cc(C(C)(C)C)ccc1C1=N[C@@H](c2ccc(Cl)cc2)[C@@H](c2ccc(Cl)cc2)N1C(=O)N1CCN(CC(=O)NCCOCCOCCOCCNC(=O)CN2CCN(C(=O)N3C(c4ccc(C(C)(C)C)cc4OCC)=N[C@H](c4ccc(Cl)cc4)[C@@H]3c3ccc(Cl)cc3)CC2=O)C(=O)C1
AUC [6]: 42.8 µg·h/mL | Ki [7]: 0.09 µM | IC50 (HCT-116 [8]): 21 µM | half-life [9]: 9.6 h | inhibition in vivo at 30 mg/kg (A549 [10]): 52.4% | IC50 (HCT-116 [11]): 1.1 µM | IC50 (A549 [12]): 0.58 µM

Emax [13]: 75% | DC50 [14]: 0.136 µM | DC50 [15]: 0.22 µM | Emax [16]: 88%
SMILES: C=CC(=O)N1C[C@@H](n2nc(-c3ccc(Oc4ccccc4)cc3)c3c(N)ncnc32)C[C@H]1C(=O)OCCOCCOCC(=O)N[C@H](C(=O)N1C[C@H](O)C[C@H]1C(=O)NCc1ccc(-c2scnc2C)cc1)C(C)(C)C

SMILES: C[C@H]1[C@H](C)CC[C@]2(C(=O)NCCOCCOCCOCCNc3cccc4c3C(=O)N(C3CCC(=O)NC3=O)C4=O)CC[C@]3(C)C(=CC[C@@H]4[C@@]5(C)CC[C@H](O)C(C)(C)[C@@H]5CC[C@]43C)[C@H]12 (some centres not stated)
IC50 (HepG2): 0.38 µM | IC50 (Huh-7): 0.39 µM | IC50 (A549 [12]): 0.23 µM

Emax [17]: 72% | IC50 [1]: 0.338 µM
SMILES: CCCOc1cccc(Oc2cc3c(cc2NS(=O)(=O)c2cccc(C(=O)NCCOCCOCCOCC(=O)N[C@@H](C(=O)N4C[C@@H](O)C[C@@H]4C(=O)NCc4ccc(-c5scnc5C)cc4)C(C)(C)C)c2)n(C)c(=O)n3C)c1

SMILES: Cc1ncsc1-c1ccc(CNC(=O)[C@H]2C[C@H](O)CN2C(=O)[C@H](NC(=O)CCCCCCCCCCn2cc(COc3cc4ncnc(Nc5ccc(F)c(Cl)c5)c4cc3NC(=O)/C=C/N3CCCCC3)nn2)C(C)(C)C)cc1
IC50 (NCI-H1975): > 0.02 µM | Emax [18]: 91% | IC50 (HCC827 [19]): 0.006 µM | inhibition in vivo at 30 mg/kg (HCC827 [20]): 90% | DC50 [21]: 0.00357 µM

DC50 [22]: 0.0033 µM | DC50 [23]: 0.0007 µM | DC50 [24]: 0.0011 µM | IC50 (MV4-11): 0.0011 µM
SMILES: Cc1ncsc1-c1ccc(CNC(=O)[C@@H]2C[C@@H](O)CN2C(=O)[C@@H](NC(=O)OCC(C)(COCCOCCOCCNC(=O)C[C@@H]2N=C(c3ccc(Cl)cc3)c3c(sc(C)c3C)-n3c(C)nnc32)COCCOCCOCCNC(=O)C[C@@H]2N=C(c3ccc(Cl)cc3)c3c(sc(C)c3C)-n3c(C)nnc32)C(C)(C)C)cc1

SMILES: Cc1ncsc1-c1ccc([C@H](C)NC(=O)[C@@H]2C[C@@H](OC(=O)CCCCn3cc(CNC(=O)CC[C@H](NC(=O)c4ccc(NCc5cnc6nc(N)[nH]c(=O)c6n5)cc4)C(=O)O)nn3)CN2C(=O)[C@@H](NC(=O)COCCCOCCNC(=O)C[C@@H]2N=C(c3ccc(Cl)cc3)c3c(sc(C)c3C)-n3c(C)nnc32)C(C)(C)C)cc1
Emax [25]: 100% | IC50 (HFF-1): > 10 µM | IC50 (HeLa): 0.246 µM

DC50 [26]: < 0.1 µM | EC99 [26]: 10 nM | Kd [27]: 0.011 µM
SMILES: Cc1ncsc1-c1ccc(CNC(=O)[C@@H]2C[C@@H](O)CN2C(=O)[C@@H](NC(=O)COCCOCCOCCOCCOCCOC(=O)N[C@H](C(=O)N2C[C@H](O)C[C@H]2C(=O)NCc2ccc(-c3scnc3C)cc2)C(C)(C)C)C(C)(C)C)cc1
